Tests used:
HIV-1(NL4-3) [1] = format: cell-based
HIV-1(NL4-3) [2] = assay: microbe, parasite or virus in culture; format: cell-based; conditions: Human immunodeficiency virus 1, NL43; pretreated 1 h, HIV-1(NL4-3) 3 h, washed, 48 h; luciferase; read-out: IC50, inhibition of HIV
CD4 = assay: Surface staining of CD4 on CEM-SS T cells; format: cell-based, human; conditions: 100 μM
HIV-1(Vpr-β-lactamase) = assay: BlaM-Vpr-based viral entry assay; format: cell-based; conditions: 100 μM; CEM-SS T cells
HIV-1(Env) [3] = format: cell-based
HIV-1(Env) [4] = assay: 2-LTR circles by real-time PCR (nuclear migration) in CEM-SS T cells; format: cell-based
EBOV (Zaire) = format: cell-based, Zaire ebolavirus; conditions: HFF-1 cells, pretreated 2 h, MOI 2.5, 48 h in continuous presence
in vitro = conditions: human
ALK = ALK (Homo sapiens, UniProt Q9UM73); assay: Kinase profiling (Reaction Biology): ALK
ABL1 = ABL1 (Homo sapiens, UniProt P00519); assay: Kinase profiling (Reaction Biology): ABL1
AKT2 = AKT2 (Homo sapiens, UniProt P31751); assay: Kinase profiling (Reaction Biology): AKT2
PKA = PKA (Homo sapiens, UniProt P17612); assay: Kinase profiling (Reaction Biology): PKA
CK2a = CK2a (Homo sapiens, UniProt P68400); assay: Kinase profiling (Reaction Biology): CK2a
EGFR = EGFR (Homo sapiens, UniProt P00533); assay: Kinase profiling (Reaction Biology): EGFR
JAK3 = JAK3 (Homo sapiens, UniProt P52333); assay: Kinase profiling (Reaction Biology): JAK3
JNK1 = JNK1 (Homo sapiens, UniProt P45983); assay: Kinase profiling (Reaction Biology): JNK1
JNK3 = JNK3 (Homo sapiens, UniProt P53779); assay: Kinase profiling (Reaction Biology): JNK3
MEK1 = MEK1 (Homo sapiens, UniProt Q02750); assay: Kinase profiling (Reaction Biology): MEK1
NEK1 = NEK1 (Homo sapiens, UniProt Q96PY6); assay: Kinase profiling (Reaction Biology): NEK1
PKCa = PKCa (Homo sapiens, UniProt P17252); assay: Kinase profiling (Reaction Biology): PKCa
PLK2 = PLK2 (Homo sapiens, UniProt Q9NYY3); assay: Kinase profiling (Reaction Biology): PLK2
SGK1 = SGK1 (Homo sapiens, UniProt O00141); assay: Kinase profiling (Reaction Biology): SGK1
TLK1 = TLK1 (Homo sapiens, UniProt Q9UKI8); assay: Kinase profiling (Reaction Biology): TLK1
WEE1 = WEE1 (Homo sapiens, UniProt P30291); assay: Kinase profiling (Reaction Biology): WEE1
c-Src = c-Src (Homo sapiens, UniProt P12931); assay: Kinase profiling (Reaction Biology): c-Src
FGFR1 = FGFR1 (Homo sapiens, UniProt P11362); assay: Kinase profiling (Reaction Biology): FGFR1
GSK3b = GSK3b (Homo sapiens, UniProt P49841); assay: Kinase profiling (Reaction Biology): GSK3b
IGF1R = IGF1R (Homo sapiens, UniProt P08069); assay: Kinase profiling (Reaction Biology): IGF1R
LIMK1 = LIMK1 (Homo sapiens, UniProt P53667); assay: Kinase profiling (Reaction Biology): LIMK1
ROCK2 = ROCK2 (Homo sapiens, UniProt O75116); assay: Kinase profiling (Reaction Biology): ROCK2
STK16 = STK16 (Homo sapiens, UniProt O75716); assay: Kinase profiling (Reaction Biology): STK16
STK33 = STK33 (Homo sapiens, UniProt Q9BYT3); assay: Kinase profiling (Reaction Biology): STK33
Jurkat T cells = assay: SDF-1-mediated chemotaxis assay (transwell); conditions: Homo sapiens, 2 h, read-out: IC50, inhibition of Jurkat T cell chemotaxis, SDF-1 40 ng/ml, 2 h, transwell
Aurora A = Aurora A (Homo sapiens, UniProt O14965); assay: Kinase profiling (Reaction Biology): Aurora A
resting CD4 T cells = assay: FITC-phalloidin staining of F-actin after SDF-1; conditions: 100 μM pretreatment, FITC-phalloidin flow cytometry
p-cofilin = assay: Intracellular p-cofilin staining and flow cytometry in CEM-SS T cells; conditions: 100 μM, 1 h, 0 h: 20.6%

Sequence of ROCK2 (O75116 whole entry): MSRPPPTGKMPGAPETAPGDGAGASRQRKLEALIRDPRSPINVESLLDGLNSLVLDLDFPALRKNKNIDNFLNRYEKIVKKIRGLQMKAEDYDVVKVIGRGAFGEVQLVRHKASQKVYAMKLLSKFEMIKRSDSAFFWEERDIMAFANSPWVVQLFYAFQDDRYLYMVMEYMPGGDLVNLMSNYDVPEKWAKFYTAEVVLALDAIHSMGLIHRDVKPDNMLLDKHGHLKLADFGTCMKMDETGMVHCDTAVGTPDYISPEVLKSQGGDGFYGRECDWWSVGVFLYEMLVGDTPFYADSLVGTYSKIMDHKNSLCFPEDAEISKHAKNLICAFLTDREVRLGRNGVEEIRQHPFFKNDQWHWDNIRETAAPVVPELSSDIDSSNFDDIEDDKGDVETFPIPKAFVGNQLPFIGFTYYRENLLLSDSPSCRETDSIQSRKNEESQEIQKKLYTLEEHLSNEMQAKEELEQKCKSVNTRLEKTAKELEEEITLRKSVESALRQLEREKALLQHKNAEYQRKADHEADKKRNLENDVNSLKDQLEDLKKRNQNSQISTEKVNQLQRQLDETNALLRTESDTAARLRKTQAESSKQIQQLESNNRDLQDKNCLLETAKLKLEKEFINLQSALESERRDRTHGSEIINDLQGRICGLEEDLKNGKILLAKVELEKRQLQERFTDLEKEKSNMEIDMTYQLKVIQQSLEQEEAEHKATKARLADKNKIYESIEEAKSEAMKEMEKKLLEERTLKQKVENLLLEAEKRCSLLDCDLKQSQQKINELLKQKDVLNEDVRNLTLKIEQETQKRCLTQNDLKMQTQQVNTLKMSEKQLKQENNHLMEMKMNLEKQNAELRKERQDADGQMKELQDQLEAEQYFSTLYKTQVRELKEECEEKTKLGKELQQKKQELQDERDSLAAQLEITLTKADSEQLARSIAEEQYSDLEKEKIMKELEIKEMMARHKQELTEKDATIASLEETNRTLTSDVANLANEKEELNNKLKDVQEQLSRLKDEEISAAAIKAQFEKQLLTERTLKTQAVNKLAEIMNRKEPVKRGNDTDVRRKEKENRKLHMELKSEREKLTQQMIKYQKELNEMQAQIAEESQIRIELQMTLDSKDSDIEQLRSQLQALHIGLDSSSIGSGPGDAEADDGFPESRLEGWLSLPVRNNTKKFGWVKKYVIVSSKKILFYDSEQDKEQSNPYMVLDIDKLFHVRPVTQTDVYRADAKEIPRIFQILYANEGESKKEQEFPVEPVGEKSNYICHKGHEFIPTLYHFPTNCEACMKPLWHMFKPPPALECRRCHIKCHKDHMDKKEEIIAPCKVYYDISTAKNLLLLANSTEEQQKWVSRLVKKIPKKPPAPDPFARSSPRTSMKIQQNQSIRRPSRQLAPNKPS
Sequence of FGFR1 (P11362 22-822): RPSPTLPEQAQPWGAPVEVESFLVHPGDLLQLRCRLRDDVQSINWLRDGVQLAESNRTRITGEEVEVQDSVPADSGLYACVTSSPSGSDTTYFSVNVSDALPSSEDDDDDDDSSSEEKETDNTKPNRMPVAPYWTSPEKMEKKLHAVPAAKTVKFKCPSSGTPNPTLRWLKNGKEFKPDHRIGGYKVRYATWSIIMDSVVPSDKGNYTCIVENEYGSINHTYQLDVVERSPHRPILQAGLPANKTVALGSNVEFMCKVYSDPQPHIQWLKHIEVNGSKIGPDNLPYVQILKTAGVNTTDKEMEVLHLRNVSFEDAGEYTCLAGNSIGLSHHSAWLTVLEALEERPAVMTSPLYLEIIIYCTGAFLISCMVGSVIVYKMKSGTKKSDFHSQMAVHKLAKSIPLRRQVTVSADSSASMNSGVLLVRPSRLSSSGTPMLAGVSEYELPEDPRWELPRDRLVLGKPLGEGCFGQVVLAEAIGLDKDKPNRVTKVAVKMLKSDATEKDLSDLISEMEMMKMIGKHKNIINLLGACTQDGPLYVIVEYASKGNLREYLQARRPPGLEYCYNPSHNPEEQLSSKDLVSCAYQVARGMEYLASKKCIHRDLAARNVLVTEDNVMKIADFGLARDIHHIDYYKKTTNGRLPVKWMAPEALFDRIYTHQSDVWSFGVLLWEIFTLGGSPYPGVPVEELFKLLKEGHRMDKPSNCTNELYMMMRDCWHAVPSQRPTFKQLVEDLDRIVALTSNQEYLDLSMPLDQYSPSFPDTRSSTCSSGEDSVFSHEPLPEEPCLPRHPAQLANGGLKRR
Sequence of WEE1 (P30291 whole entry): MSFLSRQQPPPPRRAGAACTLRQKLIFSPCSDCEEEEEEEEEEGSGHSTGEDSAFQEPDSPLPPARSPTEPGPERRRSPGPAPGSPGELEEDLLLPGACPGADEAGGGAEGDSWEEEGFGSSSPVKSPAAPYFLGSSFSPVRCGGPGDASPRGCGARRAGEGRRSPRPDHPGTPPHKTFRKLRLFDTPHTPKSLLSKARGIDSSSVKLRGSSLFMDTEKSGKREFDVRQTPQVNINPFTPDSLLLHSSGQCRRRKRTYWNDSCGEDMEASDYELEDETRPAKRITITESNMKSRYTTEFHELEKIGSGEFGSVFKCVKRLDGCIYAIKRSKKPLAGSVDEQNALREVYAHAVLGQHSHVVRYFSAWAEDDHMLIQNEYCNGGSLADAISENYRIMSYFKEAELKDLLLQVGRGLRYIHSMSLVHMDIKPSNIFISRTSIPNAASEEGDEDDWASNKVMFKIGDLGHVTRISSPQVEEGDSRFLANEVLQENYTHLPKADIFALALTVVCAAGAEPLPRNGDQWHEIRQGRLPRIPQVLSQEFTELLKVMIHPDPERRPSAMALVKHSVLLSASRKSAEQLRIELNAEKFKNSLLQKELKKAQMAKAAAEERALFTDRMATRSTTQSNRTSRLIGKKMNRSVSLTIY
Sequence of JNK1 (P45983 whole entry): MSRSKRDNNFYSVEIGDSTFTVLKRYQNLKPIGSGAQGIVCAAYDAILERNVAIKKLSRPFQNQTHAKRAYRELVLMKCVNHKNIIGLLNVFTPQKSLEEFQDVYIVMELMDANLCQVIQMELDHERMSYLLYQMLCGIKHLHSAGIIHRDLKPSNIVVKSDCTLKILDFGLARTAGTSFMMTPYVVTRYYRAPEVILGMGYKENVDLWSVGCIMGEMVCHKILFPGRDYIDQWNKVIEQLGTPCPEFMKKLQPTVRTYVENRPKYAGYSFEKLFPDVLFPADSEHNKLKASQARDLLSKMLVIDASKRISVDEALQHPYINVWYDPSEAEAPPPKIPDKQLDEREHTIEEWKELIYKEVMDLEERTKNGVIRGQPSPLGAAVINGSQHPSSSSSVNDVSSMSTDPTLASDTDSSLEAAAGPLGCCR
Sequence of STK33 (Q9BYT3 whole entry): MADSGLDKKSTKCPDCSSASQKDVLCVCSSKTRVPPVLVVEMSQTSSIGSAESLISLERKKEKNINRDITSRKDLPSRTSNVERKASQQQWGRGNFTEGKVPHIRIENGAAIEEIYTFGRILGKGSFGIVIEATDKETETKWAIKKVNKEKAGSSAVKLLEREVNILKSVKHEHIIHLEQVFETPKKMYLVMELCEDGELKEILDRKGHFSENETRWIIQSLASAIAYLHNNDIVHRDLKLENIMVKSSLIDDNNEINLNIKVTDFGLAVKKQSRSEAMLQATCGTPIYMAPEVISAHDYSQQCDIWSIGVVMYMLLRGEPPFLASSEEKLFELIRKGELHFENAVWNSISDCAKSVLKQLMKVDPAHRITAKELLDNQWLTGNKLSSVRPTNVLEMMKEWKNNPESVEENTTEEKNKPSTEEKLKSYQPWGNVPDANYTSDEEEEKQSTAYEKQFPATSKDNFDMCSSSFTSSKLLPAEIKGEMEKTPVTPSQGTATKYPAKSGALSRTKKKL
Sequence of NEK1 (Q96PY6 whole entry): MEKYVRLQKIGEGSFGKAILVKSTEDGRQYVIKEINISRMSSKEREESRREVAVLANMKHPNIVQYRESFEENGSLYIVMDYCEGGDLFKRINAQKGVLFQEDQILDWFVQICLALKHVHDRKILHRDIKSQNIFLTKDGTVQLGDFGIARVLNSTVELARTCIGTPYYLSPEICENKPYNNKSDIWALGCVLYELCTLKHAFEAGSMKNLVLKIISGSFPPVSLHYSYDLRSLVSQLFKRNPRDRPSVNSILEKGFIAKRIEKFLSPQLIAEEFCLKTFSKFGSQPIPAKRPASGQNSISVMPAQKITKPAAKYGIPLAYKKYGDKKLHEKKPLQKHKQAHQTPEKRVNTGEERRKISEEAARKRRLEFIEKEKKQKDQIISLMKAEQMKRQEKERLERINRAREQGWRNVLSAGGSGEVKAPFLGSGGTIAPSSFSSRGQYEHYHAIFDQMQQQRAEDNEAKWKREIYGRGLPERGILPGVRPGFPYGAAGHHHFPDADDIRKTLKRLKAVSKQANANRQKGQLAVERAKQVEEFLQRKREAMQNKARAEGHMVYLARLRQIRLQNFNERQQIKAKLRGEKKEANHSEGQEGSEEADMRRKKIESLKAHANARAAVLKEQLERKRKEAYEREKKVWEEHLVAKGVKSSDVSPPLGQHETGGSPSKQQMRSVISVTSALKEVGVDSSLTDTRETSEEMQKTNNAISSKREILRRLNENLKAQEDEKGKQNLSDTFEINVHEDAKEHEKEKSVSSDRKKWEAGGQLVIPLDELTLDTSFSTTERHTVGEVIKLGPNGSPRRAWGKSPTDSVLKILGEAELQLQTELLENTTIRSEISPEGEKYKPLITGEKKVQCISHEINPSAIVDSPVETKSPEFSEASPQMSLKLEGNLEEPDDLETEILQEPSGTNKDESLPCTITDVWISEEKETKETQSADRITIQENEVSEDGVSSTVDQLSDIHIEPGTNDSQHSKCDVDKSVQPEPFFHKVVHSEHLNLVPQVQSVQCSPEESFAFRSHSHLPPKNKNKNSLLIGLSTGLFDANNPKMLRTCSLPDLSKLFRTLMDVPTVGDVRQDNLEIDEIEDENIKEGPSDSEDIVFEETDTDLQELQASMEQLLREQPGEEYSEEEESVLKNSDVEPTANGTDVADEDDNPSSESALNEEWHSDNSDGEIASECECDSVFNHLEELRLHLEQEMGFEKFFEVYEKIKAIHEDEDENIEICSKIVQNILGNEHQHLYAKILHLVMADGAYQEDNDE

**Q.** With COC(=O)c1ccc2[nH]c(C3CCN(c4ncnc5[nH]cc(Cl)c45)CC3)nc2c1 [Compound R10015, Methyl 2-(1-(5-chloro-7H-pyrrolo[2,3-d]pyrimidin-4-yl)piperidin-4-yl)-1H-benzo[d]imidazole-5-carboxylate] as the molecule, how does the “Infectivity (percentage of GFP+ cells)” value (HIV-1(NL4-3) [1]; 100 μM, pretreated 1 h, HIV-1(NL4-3) 3 h, washed, 48 h, viable cells only, paired DMSO controls 1.76-3.37%) read?
**A.** Its value is 0.43%.

**Q.** And the “X4 HIV infection in screening” value (HIV-1(NL4-3) [1]; at nontoxic dosages, […], Fig. 1C and 2)?
**A.** The value was “blocked”.

**Q.** What about the IC50 (HIV-1(NL4-3) [2]) of the same molecule?
**A.** Its IC50 is 14.9 µM.

**Q.** What about the “surface expression of CD4” value (CD4; 1 h) of the same molecule?
**A.** Its value is “did not alter”.

**Q.** What about the “surface density of CD4” value (CD4; prolonged treatment 4 h) of the same molecule?
**A.** The value was “slightly decreased”.

**Q.** What about the “viral entry, HIV-1(Vpr-β-lactamase)” value (HIV-1(Vpr-β-lactamase)) of the same molecule?
**A.** The value was “did not significantly inhibit”.

**Q.** What about the “viral late DNA synthesis” value (HIV-1(Env) [3]) of the same molecule?
**A.** The value was “inhibited”.

**Q.** And the “viral nuclear migration (2-LTR circles)” value (HIV-1(Env) [4])?
**A.** The value was “inhibited”.

**Q.** What about the “inhibition of EBOV” value (EBOV (Zaire)) of the same molecule?
**A.** Its value is “dose-dependent inhibition”.

**Q.** What about the viability at 100 µM (in vitro) of the same molecule?
**A.** The viability at 100 µM was 89.2%.

**Q.** What about the activity at 1 µM (ALK) of the same molecule?
**A.** The activity at 1 µM was 95.5%.

**Q.** And the activity at 1 µM (ABL1)?
**A.** Its activity at 1 µM is 89.2%.

**Q.** And the activity at 1 µM (AKT2)?
**A.** Its activity at 1 µM is 73.1%.

**Q.** What about the activity at 1 µM (PKA) of the same molecule?
**A.** Its activity at 1 µM is 24%.

**Q.** What about the inhibition at 1 µM (PKA; read-out: inhibition of protein kinase A (PKA)) of the same molecule?
**A.** The inhibition at 1 µM was about 76%.

**Q.** And the activity at 1 µM (CK2a)?
**A.** Its activity at 1 µM is 94.2%.

**Q.** And the activity at 1 µM (EGFR)?
**A.** The activity at 1 µM was 93.2%.

**Q.** What about the activity at 1 µM (JAK3) of the same molecule?
**A.** Its activity at 1 µM is 61.1%.

**Q.** And the activity at 1 µM (JNK1)?
**A.** The activity at 1 µM was 95.2%.

**Q.** And the activity at 1 µM (JNK3)?
**A.** Its activity at 1 µM is 85.7%.

**Q.** What about the activity at 1 µM (MEK1) of the same molecule?
**A.** The activity at 1 µM was 75.6%.

**Q.** What about the activity at 1 µM (NEK1) of the same molecule?
**A.** Its activity at 1 µM is 67.2%.

**Q.** What about the activity at 1 µM (PKCa) of the same molecule?
**A.** The activity at 1 µM was 47.5%.

**Q.** And the activity at 1 µM (PLK2)?
**A.** Its activity at 1 µM is 103%.

**Q.** And the activity at 1 µM (SGK1)?
**A.** The activity at 1 µM was 61%.

**Q.** What about the activity at 1 µM (TLK1) of the same molecule?
**A.** The activity at 1 µM was 98.5%.

**Q.** What about the activity at 1 µM (WEE1) of the same molecule?
**A.** The activity at 1 µM was 97.2%.

**Q.** What about the activity at 1 µM (c-Src) of the same molecule?
**A.** The activity at 1 µM was 92.4%.

**Q.** What about the activity at 1 µM (FGFR1) of the same molecule?
**A.** The activity at 1 µM was 86.5%.

**Q.** What about the activity at 1 µM (GSK3b) of the same molecule?
**A.** Its activity at 1 µM is 67.8%.

**Q.** And the activity at 1 µM (IGF1R)?
**A.** The activity at 1 µM was 90%.

**Q.** What about the activity at 1 µM (LIMK1) of the same molecule?
**A.** Its activity at 1 µM is 6.4%.

**Q.** And the activity at 1 µM (ROCK2)?
**A.** The activity at 1 µM was 29.5%.

**Q.** And the inhibition at 1 µM (ROCK2; read-out: inhibition of ROCK2)?
**A.** The inhibition at 1 µM was about 70%.

**Q.** And the activity at 1 µM (STK16)?
**A.** The activity at 1 µM was 48.6%.

**Q.** And the activity at 1 µM (STK33)?
**A.** Its activity at 1 µM is 56.5%.

**Q.** What about the IC50 (Jurkat T cells) of the same molecule?
**A.** The IC50 was about 10 µM.

**Q.** And the activity at 1 µM (Aurora A)?
**A.** The activity at 1 µM was 60.3%.

**Q.** What about the SDF-1-mediated actin polymerization (resting CD4 T cells) of the same molecule?
**A.** The SDF-1-mediated actin polymerization was “markedly depressed”.

**Q.** What about the “P-cofilin, lower gate (cells staining low)” value (p-cofilin) of the same molecule?
**A.** The value was 80%.

From paper PMC5469273, “Discovery of Novel Small-Molecule Inhibitors of LIM Domain Kinase for Inhibiting HIV-1” (Journal of Virology, 2017)
